Several values for one entry are separate records, joined by “and”; a condition that tells them apart may be missing. Equal values may be shown once. Read-outs that look alike come from different tables or passages of the source.
What was measured:
[1] = tested on: bronchial carcinoma (lung cancer); test: Therapy outcome of chemotherapy in patients, assessed by computer tomography after two to three cycles; type: in vivo, human; design: key: PR=partial response (i.e. the carcinoma has become detectably smaller); NC=“No Change”=zero growth of the carcinoma; Progress=the carcinoma has continued to grow, no therapeutic success; settings: patient tumor ID 282, NSCLC/St. IV; without platinum derivatives
From the text: The therapy outcome, namely the change or the state of the tumor after two to three cycles of treatment compared to the state before the start of treatment, has been analyzes by computer tomography and classified on the basis of the “standard”—rating scale known and conventional in the art as class I=complete remission (CR), class II=partial remission (PR), class III=zero growth (“no change”, NC) and class IV=Progress (progressive tumor growth). The therapy outcomes achieved are shown in table 1, column 5 and in table 2 in column 3 of each group (1 to 4).

[2] = tested on: tumor cells of lung cancer (bronchial carcinoma) tissue samples; test: Chemosensitivity test (IC50 determination) by colony formation in tumor digests ex vivo; type: cell-based, human
Description: Parts of freshly (under general anesthesia of the patient) taken (here biopsied) lung cancer (bronchial carcinoma) tissue were transported to the laboratory and processed immediately for IC50 determination.
The transport to the laboratory should take place in chilled culture medium. For this purpose in particular HEPES- and NaHCO3-buffered, preferably flavin-free RPMI 1640 culture medium containing 10% fetal bovine serum, 100 IU/mL penicillin G, 100 ug/mL streptomycin, 20 μg/mL Amikacin (as antibiotics) and […] Voriconazole (as an antifungal agent) are suitable.
In the laboratory, this tumor tissue samples were cleaned, weighed, minced and suspended in culture medium.
For this purpose in particular the method according to DE 102012003700 B3 is suitable, wherein about 5.5 mg tumor tissue sample per 1 mL of culture medium are subjected to enzymatic digestion with collagenase, preferably by using Clostridium histolytikum collagenase (Sigma, 230 CDU/mL), in a Petri dish under standard conditions in a gassing incubator (36-37° C., 3.5% CO2 in water vapor saturated air) for 4-5 hours.
Following the collagenase digestion, the digestion product is centrifuged at 50×g, the supernatant is discarded and the pellet is resuspended in 1 mL of fresh culture medium. With this resuspension—hereinafter referred to as “tumor digest”—the chemosensitivity test (IC50 determination) is performed
The thus prepared culture plates were pre-incubated for about 1 hour under standard conditions (i.e.: gassing incubator; 36-37° C.; 3.5% CO2 in water vapor saturated air). Subsequently, 150 μl tumor digest were added to these pre-incubated wells, they were incubated for 72 hours under standard conditions (see above), and then analyzed microscopically.
After the end of incubation, in all tumor digest test preparations the culture medium was removed, and the existing cell colonies were rinsed with phosphate buffered saline (PBS) and drained. Subsequently, the cells were fixed with methanol at minus (−) 25° C. for 5 to 10 minutes and then subjected to Giemsa staining according to Gurr.

[3] = tested on: lung adenocarcinoma cell strain A240286S; test: Verification test of cisplatin concentrations by IC50 determination (cell counting); type: cell-based, human; settings: 72 hours; 15 evaluable test preparations; read-out: IC50-values of A240286S cells in the verification tests, average
Description: The final concentration gradients were pre-incubated for approximately 30 minutes under standard conditions (see above). […] The culture plate was then incubated, in parallel with the culture plate fitted with the tumor digests, for 72 hours under standard conditions. In the batches of the verification test (with the cells of the lung adenocarcinoma cell strain A240286S) the culture medium was decanted after the end of incubation. The present cellular layers were rinsed with PBS, drained and then removed from the culture vessel with Accutase. The cells were isolated by passing them through a blunt cannula no. 20. Using a cell-counting-and-analyzing apparatus (here the Casy I Cell Analyzer from Roche, Basel), the cell density was determined for each test batch and reduced by the inoculum.

Nc1ccn([C@@H]2O[C@H](CO)[C@@H](O)C2(F)F)c(=O)n1 [Gemcitabine]
Therapy outcome [1]: Progress

N.N.[Cl][Pt][Cl] [cisplatin]
IC50 ([2]; Group 1 (IC50 < 5 μM), 3 tumor samples, read-out: IC50 mean value): 3.64 µM
IC50 ([2]; Group 2 (IC50 ≧ 5 < 8 μM), 7 tumor samples, read-out: IC50 mean value): 6.73 µM and 6.72 µM
IC50 ([2]; Group 3 (IC50 ≧ 8 bis 25.6 μM), 5 tumor samples, read-out: IC50 mean value): 21.1 µM
IC50 ([2]; tumor sample ID 220, SCLC/St. IV, 72 hours, colonies of epithelial tumor cells, read-out: IC50): 2.6 µM
IC50 ([2]; tumor sample ID 221, NSCLC/St. IV, 72 hours, read-out: IC50): 7.77 µM
IC50 ([2]; tumor sample ID 228, NSCLC/St. IV, 72 hours, read-out: IC50): > 26 µM
IC50 ([2]; tumor sample ID 233, NSCLC/St. IV, 72 hours, read-out: IC50): > 26 µM
IC50 ([2]; tumor sample ID 245, NSCLC/St. IV, 72 hours, read-out: IC50): 7.74 µM
IC50 ([2]; tumor sample ID 255, SCLC/St. IV, 72 hours, read-out: IC50): 4.58 µM
IC50 ([2]; tumor sample ID 258, NSCLC/St. IV, 72 hours, read-out: IC50): 16.7 µM
IC50 ([2]; tumor sample ID 260, NSCLC/St. IIIb, 72 hours, read-out: IC50): 5.61 µM
IC50 ([2]; tumor sample ID 272, SCLC/St. IV, 72 hours, read-out: IC50): 21 µM
IC50 ([2]; tumor sample ID 275, NSCLC/St. IV, 72 hours, read-out: IC50): 5.38 µM
IC50 ([2]; tumor sample ID 277, NSCLC/St. IIIa, 72 hours, read-out: IC50): 7.58 µM
IC50 ([2]; tumor sample ID 278, NSCLC/St. IV (adenocarcinoma), 72 hours, read-out: IC50): 5.25 µM
IC50 ([2]; tumor sample ID 279, NSCLC/St. IV (squamous cell carcinoma), 72 hours, read-out: IC50): 3.73 µM
IC50 ([2]; tumor sample ID 282, NSCLC/St. IV, 72 hours, read-out: IC50): 14.8 µM
IC50 ([2]; tumor sample ID 294, NSCLC/St. IV, 72 hours, read-out: IC50): 7.7 µM
IC50 ([2]; tumor sample ID 297, NSCLC/St. IV, 72 hours, read-out: IC50): 25.6 µM
IC50 ([2]; tumor sample ID 311, NSCLC/KI. IIIb, 72 hours, read-out: IC50): 22.1 µM
IC50 ([2]; tumor sample ID 314, NSCLC/KI. IV, 72 hours, read-out: IC50): 20.5 µM
IC50 [3]: 1.2 µM
